The supplement of paper PMC10307832

Tests used:
Assay in all cases: relative viability (nuclei count vs DMSO), 5 days (fraction); higher = more cells survive
[1] = compound: O=C(NC1CCNCC1)c1n[nH]cc1NC(=O)c1c(Cl)cccc1Cl [AT-7519] + COc1cccc2cc(-c3nc([C@H]4CC[C@H](C(=O)O)CC4)n4ncnc(N)c34)[nH]c12 [OSI-027] (partner 0.5 µM)
Outline: (§1)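 Dosing by pin tool came one day after lung cancer cell lines were seeded in 1536-well plates, using either one drug or a fixed anchor-drug dose plus five library-drug doses (not always all listed) in √10 steps. After 5 days, nuclei were counted on 4× images. Relative viability is treated-well nuclei count divided by vehicle-well nuclei count, and values are medians of duplicate plates.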

[2] = compound: O=C(NC1CCNCC1)c1n[nH]cc1NC(=O)c1c(Cl)cccc1Cl [AT-7519] + NC(=O)Nc1cc(-c2cccc(F)c2)sc1C(=O)N[C@H]1CCCNC1 [AZD7762] (partner 0.2 µM)
Outline: as §1

[3] = compound: C1=CC2=C(C=C(C(=C2N=C1)O)N=NC3=CC4=C(C=C3)C=C(C=C4)S(=O)(=O)O)S(=O)(=O)O + CS(=O)(=O)N1CCN(Cc2cc3nc(-c4cccc5[nH]ncc45)nc(N4CCOCC4)c3s2)CC1 [Pictilisib] (partner 1 µM)
Outline: as §1

[4] = compound: C1=CC2=C(C=C(C(=C2N=C1)O)N=NC3=CC4=C(C=C3)C=C(C=C4)S(=O)(=O)O)S(=O)(=O)O + CCNC(=O)c1noc(-c2cc(C(C)C)c(O)cc2O)c1-c1ccc(CN2CCOCC2)cc1 [Luminespib] (partner 0.01 µM)
Outline: as §1

| Cell Line | relative viability ([1]; first compound 0.01 µM) | relative viability ([1]; first compound 0.03162 µM) | relative viability ([1]; first compound 0.3162 µM) | relative viability ([1]; first compound 1 µM) | relative viability ([2]; first compound 0.01 µM) | relative viability ([2]; first compound 0.03162 µM) | relative viability ([2]; first compound 0.3162 µM) | relative viability ([2]; first compound 1 µM) | relative viability ([3]; first compound 0.08 µM) | relative viability ([3]; first compound 0.253 µM) | relative viability ([3]; first compound 0.8 µM) | relative viability ([3]; first compound 2.53 µM) | relative viability ([3]; first compound 8 µM) | relative viability ([4]; first compound 0.08 µM) | relative viability ([4]; first compound 0.253 µM) | relative viability ([4]; first compound 0.8 µM) | relative viability ([4]; first compound 2.53 µM) | relative viability ([4]; first compound 8 µM) |
| --- | --- | --- | --- | --- | --- | --- | --- | --- | --- | --- | --- | --- | --- | --- | --- | --- | --- | --- |
| 201T | 0.694 | 0.739 | 1.01 | 0.812 | 0.595 | 0.591 | 0.645 | 0.683 | 0.625 | 0.696 | 0.649 | 0.695 | 0.72 | 1.09 | 1.09 | 1.04 | 1.09 | 1.04 |
| A549 | – | – | – | – | – | – | – | – | 0.522 | 0.449 | 0.545 | 0.509 | 0.322 | – | – | – | – | – |
| A-427 | 0.419 | 0.389 | 0.477 | 0.187 | 0.791 | 0.627 | 0.883 | 0.502 | 0.665 | 0.731 | 0.629 | 0.672 | 0.709 | 0.891 | 0.823 | 0.851 | 1.04 | 0.727 |
| ABC-1 | 0.523 | 0.455 | 0.326 | 0.151 | 0.922 | 0.782 | 0.952 | 0.907 | 0.629 | 0.63 | 0.579 | 0.67 | 0.643 | 0.609 | – | – | 0.521 | 0.623 |
| BEN | 0.541 | 0.278 | 0.55 | 0.412 | 0.685 | 0.754 | 0.697 | 0.704 | 0.617 | 0.564 | 0.493 | 0.667 | 0.48 | 0.295 | 0.353 | 0.424 | 0.627 | 0.232 |
| CAL-12T | 0.673 | 0.649 | 0.296 | 0.135 | 0.701 | 0.623 | 0.58 | 0.354 | 0.351 | 0.409 | 0.366 | 0.36 | 0.323 | 0.466 | 0.519 | 0.616 | 0.207 | 0.335 |
| COR-L23 | 0.672 | 0.778 | 0.459 | 0.294 | – | – | – | – | 0.982 | 0.81 | 0.692 | 0.753 | 0.857 | 0.748 | 0.581 | 0.64 | 0.726 | 0.738 |
| COR-L 105 | 0.6 | 0.58 | 0.674 | 0.401 | – | – | – | – | 0.397 | 0.362 | 0.379 | 0.401 | 0.4 | 0.786 | 0.722 | 0.99 | 0.697 | 0.489 |
| Calu-6 | – | – | – | – | – | – | – | – | 0.903 | 1.01 | 0.955 | 0.974 | 0.838 | – | – | – | – | – |
| ChaGo-K-1 | 0.642 | 0.556 | 0.457 | 0.447 | 0.895 | 0.838 | 0.843 | 0.844 | 0.645 | 0.669 | 0.673 | 0.851 | 0.711 | 0.558 | 0.573 | 0.587 | 0.595 | 0.553 |
| EBC-1 | – | – | – | – | – | – | – | – | 0.511 | 0.333 | 0.439 | 0.391 | 0.499 | – | – | – | – | – |
| EKVX | 0.725 | 0.536 | 0.687 | 0.709 | 0.798 | 0.608 | 0.822 | 0.719 | 0.419 | 0.45 | 0.438 | 0.413 | 0.399 | 0.875 | 0.87 | 0.848 | 0.888 | 0.799 |
| EMC-BAC-2 | 0.363 | 0.343 | 0.358 | 0.476 | 1.09 | 1.1 | 1.03 | 1.19 | 0.514 | 0.566 | 0.522 | 0.555 | 0.349 | 1.25 | 1.05 | 1.2 | 1.24 | 1.13 |
| EPLC-272H | 0.283 | 0.296 | 0.264 | 0.206 | 0.321 | 0.21 | 0.302 | 0.336 | 0.354 | 0.321 | 0.291 | 0.312 | 0.104 | 0.264 | 0.385 | 0.388 | 0.283 | 0.383 |
| H3255 | 0.572 | 0.517 | 0.591 | 0.508 | 0.987 | 0.903 | 0.937 | 0.876 | 0.482 | 0.462 | 0.4 | 0.49 | 0.439 | 0.838 | 0.876 | 0.864 | 0.855 | 0.78 |
| HARA | 0.425 | 0.36 | 0.523 | 0.423 | 0.221 | 0.301 | 0.263 | 0.415 | 0.356 | 0.471 | 0.384 | 0.38 | 0.707 | 1.27 | 0.913 | 0.796 | 0.803 | 0.761 |
| HCC-15 | 0.673 | 0.632 | 0.54 | 0.34 | 1.18 | 1.37 | 1.17 | 1.14 | 0.839 | 0.766 | 0.635 | 0.804 | 0.636 | 0.345 | 0.383 | 0.304 | 0.428 | 0.368 |
| HCC-44 | 0.516 | 0.493 | 0.28 | 0.317 | 0.983 | 0.998 | 1.08 | 1 | 0.649 | 0.636 | 0.548 | 0.649 | 0.766 | – | 1.08 | 1.05 | 1.19 | 1.01 |
| HCC-78 | 0.386 | 0.395 | 0.349 | 0.341 | 0.609 | 0.636 | 0.616 | 0.815 | 0.206 | 0.178 | 0.221 | 0.219 | 0.118 | – | – | – | – | – |
| HCC-366 | 0.769 | 0.808 | 0.89 | 0.718 | 0.326 | 0.228 | 0.293 | 0.371 | 0.142 | 0.139 | 0.165 | 0.219 | 0.203 | – | – | – | – | – |
| HCC-827 | 0.842 | 0.72 | 0.705 | 0.539 | 0.215 | 0.17 | 0.21 | 0.237 | 1.09 | 1.07 | 0.801 | 1.02 | 0.992 | 0.859 | 0.576 | 0.592 | 0.693 | 0.683 |
